The text below walks through data of US8324390B2, “Tetrazole-substituted anthranilamides as pesticides” (Bayer CropScience AG, priority 2008, dated 2012).

Like-named read-outs stand apart in the source and are kept apart here. Bounds are passed on as bounds.

Series [1] in a line: log P determination by HPLC (EEC Directive 79/831 Annex V.A8). Format: physicochemical. Here is the method: The measurements were carried out using an Agilent 1100 LC system with a 50*4.6 Zorbax Eclipse C18 1.8 μm column (oven temperature 55° C., flow rate 2.0 ml/min).
The following mobile phases were used:
Mobile phase A: acetonitrile+1000 μl of formic acid/l
Mobile phase B: Millipore water+900 μl of formic acid/l

Series [2] deals with caterpillars of the armyworm (Spodoptera frugiperda). Briefly: Spodoptera frugiperda test (SPODFR spray treatment). The series is classed as in vivo. The note with it: Spodoptera frugiperda, foliar, read-out: effect in % (caterpillars killed). The text has this:
(§1) Solvent: 78.0 parts by weight of acetone

The test system of series [3] is green peach aphid (Myzus persicae). Briefly: Myzus test (MYZUPE spray treatment). The series is classed as in vivo. The note with it: Myzus persicae, foliar, read-out: effect in % (aphids killed).
Source text: Solvent: 78 parts by weight of acetone
as §1

Series [4] relates to larvae of the mustard beetle (Phaedon cochleariae). Briefly: Phaedon test (PHAECO spray treatment). To be noted: Phaedon cochleariae, in Brassica rapa, foliar, read-out: effect in % (beetle larvae killed).
The mark [5] stands for this setting: reversed-phase HPLC, Zorbax Eclipse C18 column, determined by HPLC according to EEC Directive 79/831 Annex V.A8, read-out: log P.
Setting [6] is: application rate 100 g/ha, maize leaf discs.
Setting [7] is: application rate 100 g/ha, Chinese cabbage leaf discs.
[8] abbreviates: reversed-phase HPLC, Zorbax Eclipse C18 column, by HPLC according to EEC Directive 79/831 Annex V.A8, read-out: log P.

Take `Cc1cc(C#N)cc(C(=O)NC(C)C)c1NC(=O)c1cc(Cn2nnc(C(F)(F)F)n2)nn1-c1ncccc1F` [Example 406]: the chromatographic logP in series [1] (setting [5]) is 2.88. In addition, the pest or weed control at 100 g/ha in series [2] (setting [6]), in series [3] (setting [7]) and in series [4] was not below 80% in each case.

`CNC(=O)c1cc(Cl)cc(C)c1NC(=O)c1cc(Cn2nnnc2C(F)(F)F)nn1-c1ncccc1Br` [Example 480]: in series [1] (setting [5]), the chromatographic logP worked out at 2.79. The pest or weed control at 100 g/ha in series [2] (setting [6]), in series [3] (setting [7]) and in series [4] was not below 80% each time.

In series [1] (log P), `N#CCNC(=O)c1cc(Cl)cc(Cl)c1NC(=O)c1cc(Cn2nnc(C(F)(F)C(F)(F)F)n2)nn1-c1ncccc1Cl` [Example 158] showed a chromatographic logP of 3.32. Besides, the pest or weed control at 100 g/ha in series [2] (in Zea mays), in series [3] (in Brassica rapa) and in series [4] was not below 80% in each case.

For `Cc1cc(C#N)cc(C(=O)NC(C)(C)C)c1NC(=O)c1cc(Cn2nnc(C(F)(F)F)n2)nn1-c1c(F)cccc1Cl` [Example 528], the chromatographic logP in series [1] (setting [5]) turned out to be 3.88. The pest or weed control at 100 g/ha in series [2] (setting [6]), in series [3] (setting [7]) and in series [4] was not below 80% in each case.

In turn, `CNC(=O)c1cc(C#N)cc(C)c1NC(=O)c1cc(Cn2nnc(C3CC3)n2)nn1-c1ncccc1Cl` [Example 102] returned a chromatographic logP in series [1] (log P) of 2.15. The pest or weed control at 100 g/ha in series [2] (in Zea mays), in series [3] (in Brassica rapa) and in series [4] was not below 80% throughout.

With `CCNC(=O)c1cc(Br)cc(C)c1NC(=O)c1cc(Cn2nnc(C(F)(F)F)n2)nn1-c1ncccc1Br` [Example 411], the chromatographic logP in series [1] (setting [5]) amounted to 3.36. Besides, the pest or weed control at 100 g/ha in series [2] (setting [6]), in series [3] (setting [7]) and in series [4] was not below 80% each time.

In series [1] (log P), `Cc1cc(Br)cc(C(=O)NC2CC2)c1NC(=O)c1cc(Cn2nnc(C(F)F)n2)nn1-c1ncccc1Cl` [Example 298] returned a chromatographic logP of 2.85. Also, the pest or weed control at 100 g/ha in series [2] (in Zea mays), in series [3] (in Brassica rapa) and in series [4] was not below 80% throughout.

As for `Cc1cc(Br)cc(C(N)=O)c1NC(=O)c1cc(Cn2nnc(C(F)(F)F)n2)nn1-c1ncccc1Br` [Example 353], the chromatographic logP in series [1] (setting [8]) amounted to 2.82. The pest or weed control at 100 g/ha in series [2] (setting [6]), in series [3] (setting [7]) and in series [4] was not below 80% throughout.

As to `Cc1cc(F)cc(C(=O)NC2CC2)c1NC(=O)c1cc(Cn2nnc(C(F)(F)F)n2)nn1-c1ncccc1Cl` [Example 27], in series [1] (log P), the chromatographic logP was 2.87. The pest or weed control at 100 g/ha in series [2] (in Zea mays), in series [3] (in Brassica rapa) and in series [4] was not below 80% throughout.

The molecule `Cc1cc(C#N)cc(C(=O)NC(C)(C)C)c1NC(=O)c1cc(Cn2nnc(C3CC3)n2)nn1-c1ncccc1Cl` [Example 105] came in with a chromatographic logP in series [1] (log P) of 2.93. Also, the pest or weed control at 100 g/ha in series [2] (in Zea mays), in series [3] (in Brassica rapa) and in series [4] was not below 80% throughout.

As to `NC(=O)c1cc(Cl)cc(Cl)c1NC(=O)c1cc(Cn2nnc(C(F)(F)F)n2)nn1-c1ncccc1Cl` [Example 55], the chromatographic logP in series [1] (log P) stood at 2.72. Also, the pest or weed control at 100 g/ha in series [2] (in Zea mays), in series [3] (in Brassica rapa) and in series [4] was not below 80% each time.

As for `CCOCCNC(=O)c1cc(C#N)cc(C)c1NC(=O)c1cc(Cn2nnc(C(F)(F)F)n2)nn1-c1ncccc1Cl` [Example 211], the chromatographic logP in series [1] (log P) turned out to be 2.99. In addition, the pest or weed control at 100 g/ha in series [2] (in Zea mays), in series [3] (in Brassica rapa) and in series [4] was not below 80% each time.

In turn, `Cc1cc(Cl)cc(C(=O)NC(C)(C)C)c1NC(=O)c1cc(Cn2nnnc2C(F)(F)C(F)(F)F)nn1-c1ncccc1Cl` [Example 443] registered a chromatographic logP in series [1] (log P) of 3.92. The pest or weed control at 100 g/ha in series [2] (in Zea mays), in series [3] (in Brassica rapa) and in series [4] was not below 80% each time.

In series [1] (log P), `Cc1cc(C#N)cc(C(=O)NC(C)C)c1NC(=O)c1cc(C(C)n2nnc(C(F)(F)F)n2)nn1-c1ncccc1Cl` (centres unmarked) [Example 438] yielded a chromatographic logP of 3.35. For the same molecule, the pest or weed control at 100 g/ha in series [2] (in Zea mays), in series [3] (in Brassica rapa) and in series [4] was not below 80% throughout.

As for `Cc1cc(Cl)cc(C(=O)NCC2CC2)c1NC(=O)c1cc(Cn2nnc(C(F)F)n2)nn1-c1ncccc1Cl` [Example 259], the chromatographic logP in series [1] (log P) turned out to be 3.04. The pest or weed control at 100 g/ha in series [2] (in Zea mays), in series [3] (in Brassica rapa) and in series [4] was not below 80% in each case.

On to `Cc1cc(C#N)cc(C(=O)NC(C)(C)C)c1NC(=O)c1cc(Cn2nnc(C(F)(F)C(F)(F)F)n2)nn1-c1ncccc1Br` [Example 425], for which, in series [1] (setting [5]), the chromatographic logP was 3.78. Further, the pest or weed control at 100 g/ha in series [2] (setting [6]), in series [3] (setting [7]) and in series [4] was not below 80% each time.

On to `Cc1cc(C#N)cc(C(=O)NC(C)C)c1NC(=O)c1cc(Cn2nnnc2C(F)(F)F)nn1-c1ncccc1Cl` [Example 165], for which, in series [1] (log P), the chromatographic logP turned out to be 2.72. In addition, the pest or weed control at 100 g/ha in series [2] (in Zea mays), in series [3] (in Brassica rapa) and in series [4] was not below 80% each time.

Turning to `CC(NC(=O)c1cc(Cl)cc(Cl)c1NC(=O)c1cc(Cn2nnnc2C(F)(F)C(F)(F)F)nn1-c1ncccc1Cl)C1CC1` (centres unmarked) [Example 448], the chromatographic logP in series [1] (log P) is 3.81. In addition, the pest or weed control at 100 g/ha in series [2] (in Zea mays), in series [3] (in Brassica rapa) and in series [4] was not below 80% throughout.

In turn, `Cc1cc(C#N)cc(C(=O)NCC2CC2)c1NC(=O)c1cc(Cn2nnc(C(F)(F)F)n2)nn1-c1ncccc1Cl` [Example 23] gave a chromatographic logP in series [1] (log P) of 3.13. Further, the pest or weed control at 100 g/ha in series [2] (in Zea mays), in series [3] (in Brassica rapa) and in series [4] was not below 80% each time.

Molecule `Cc1cc(C#N)cc(C(=O)NOCC2CC2)c1NC(=O)c1cc(Cn2nnc(C(F)(F)F)n2)nn1-c1ncccc1Cl` [Example 397] gave a chromatographic logP in series [1] (log P) of 2.96. Besides, the pest or weed control at 100 g/ha in series [2] (in Zea mays), in series [3] (in Brassica rapa) and in series [4] was not below 80% throughout.

In series [1] (log P), `CCNC(=O)c1cc(C#N)cc(C)c1NC(=O)c1cc(C(C)n2nnnc2C(F)(F)F)nn1-c1ncccc1Cl` (centres unmarked) [Example 521] gave a chromatographic logP of 2.74. In addition, the pest or weed control at 100 g/ha in series [2] (in Zea mays), in series [3] (in Brassica rapa) and in series [4] was not below 80% in each case.

Turning to `Cc1cc(Cl)cc(C(N)=O)c1NC(=O)c1cc(Cn2nnnc2C(F)(F)F)nn1-c1ncccc1Br` [Example 481], the chromatographic logP in series [1] (setting [5]) was 2.43. The pest or weed control at 100 g/ha in series [2] (setting [6]), in series [3] (setting [7]) and in series [4] was not below 80% throughout.

`Cc1cc(C#N)cc(C(=O)NC2CC2)c1NC(=O)c1cc(Cn2nnc(C(F)(F)F)n2)nn1-c1ccccc1Cl` [Example 442]: the chromatographic logP in series [1] (setting [5]) was determined as 3.29. Besides, the pest or weed control at 100 g/ha in series [2] (setting [6]), in series [3] (setting [7]) and in series [4] was not below 80% in each case.

As for `Cc1cc(C#N)cc(C(=O)NC2CCC2)c1NC(=O)c1cc(Cn2nnc(C(F)(F)F)n2)nn1-c1ncccc1Cl` [Example 24], in series [1] (log P), the chromatographic logP worked out at 3.18. For the same molecule, the pest or weed control at 100 g/ha in series [2] (in Zea mays), in series [3] (in Brassica rapa) and in series [4] was not below 80% in each case.

As for `Cc1cc(Cl)cc(C(=O)NC2CC2)c1NC(=O)c1cc(Cn2nnc(C(F)(F)F)n2)nn1-c1ncccc1Br` [Example 335], the chromatographic logP in series [1] (setting [8]) is 3.25. The pest or weed control at 100 g/ha in series [2] (setting [6]), in series [3] (setting [7]) and in series [4] was not below 80% in each case.

In turn, `CNC(=O)c1cc(Br)cc(C)c1NC(=O)c1cc(Cn2nnc(C(F)F)n2)nn1-c1ncccc1Cl` [Example 296] registered a chromatographic logP in series [1] (log P) of 2.61. The pest or weed control at 100 g/ha in series [2] (in Zea mays), in series [3] (in Brassica rapa) and in series [4] was not below 80% in each case.

`C#CCNC(=O)c1cc(C#N)cc(C)c1NC(=O)c1cc(Cn2nnc(C(F)(F)F)n2)nn1-c1ncccc1Cl` [Example 96] showed a chromatographic logP in series [1] (log P) of 2.9. For the same molecule, the pest or weed control at 100 g/ha in series [2] (in Zea mays), in series [3] (in Brassica rapa) and in series [4] was not below 80% throughout.

In series [1] (log P), `C=C(C)CNC(=O)c1cc(C#N)cc(C)c1NC(=O)c1cc(Cn2nnc(C(F)(F)F)n2)nn1-c1ncccc1Cl` [Example 338] yielded a chromatographic logP of 3.21. For the same molecule, the pest or weed control at 100 g/ha in series [2] (in Zea mays), in series [3] (in Brassica rapa) and in series [4] was not below 80% throughout.

Consider `Cc1cc(C#N)cc(C(=O)NC(C)C2CC2)c1NC(=O)c1cc(Cn2nnc(C(F)(F)F)n2)nn1-c1ncccc1Cl` (centres unmarked) [Example 20], for which, in series [1] (log P), the chromatographic logP was found to be 3.33. For the same molecule, the pest or weed control at 100 g/ha in series [2] (in Zea mays), in series [3] (in Brassica rapa) and in series [4] was not below 80% each time.
